The text below walks through data of paper PMC6508677, “Identification of druggable small molecule antagonists of the Plasmodium falciparum hexose transporter PfHT and assessment of ligand access to the glucose permeation pathway via FLAG-mediated protein engineering” (PLoS ONE, 2019).

Values joined by “and” are separate entries in the source; they are usually repeats but may differ in a detail not shown here. Equal entries are not always repeated. Where two headings read alike, the source gives them in different places. Where only a bound is given, the exact number is not on record here.

Test [1] has as its target T1, PfHT (Plasmodium falciparum, UniProt Q7KWJ5).
T1 sequence (Q7KWJ5 1-504): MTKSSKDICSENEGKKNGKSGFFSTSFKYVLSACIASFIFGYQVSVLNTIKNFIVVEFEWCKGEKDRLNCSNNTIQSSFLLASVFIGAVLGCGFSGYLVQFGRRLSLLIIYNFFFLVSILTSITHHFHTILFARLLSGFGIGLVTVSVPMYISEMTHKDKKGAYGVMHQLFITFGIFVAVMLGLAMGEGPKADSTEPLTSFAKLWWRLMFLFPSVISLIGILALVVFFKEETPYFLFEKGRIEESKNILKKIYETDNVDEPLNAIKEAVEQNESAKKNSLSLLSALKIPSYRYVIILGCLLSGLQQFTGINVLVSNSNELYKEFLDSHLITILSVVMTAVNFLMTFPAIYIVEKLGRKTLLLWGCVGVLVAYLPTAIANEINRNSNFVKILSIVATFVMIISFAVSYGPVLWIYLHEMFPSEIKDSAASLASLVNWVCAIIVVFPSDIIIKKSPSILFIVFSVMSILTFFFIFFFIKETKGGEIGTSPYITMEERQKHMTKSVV
Description: Kinetic analysis of 2-DG uptake (Km) in HEK293 cells overexpressing PfHT.
Description: Glucose uptake by P. falciparum was performed essentially as described [23]. P. falciparum strain 3D7 was cultured in 100 mm tissue culture dishes (Techno Plastic Products) in a 2% suspension of human erythrocytes and RPMI 1640 medium until reaching > 7.5% parasitemia. Cells were pelleted via centrifugation and resuspended in RPMI 1640 medium. To determine the uptake of radiolabeled glucose into the parasite, parasites were isolated from infected erythrocytes by permeablization with saponin (0.05 w/v), followed by centrifugation, aspiration of supernatant and washing of the pellet 3X with saline solution (135 mM NaCl, 2 mM KCl, 25 mM HEPES, 0.2 mM glucose and 1 mM MgCl2; pH 7.1) to remove cellular debris. WU-1 or DMSO vehicle were added to 100 μl parasites (resuspended in saline) 5 min prior to the addition of 100 μl [^14C]2-DOG (0.2- μCi/ml final concentration). 2-DG uptake was stopped after 2 min by layering the entire reaction over 300 μl of an oil mixture (5:4 mix of dibutyl phthalate / dinonyl phthalate) in Eppendorf tubes and centrifuged at 15,850 × g for 2 mins. The ratio of the estimated intracellular concentration of radiolabel relative to the extracellular concentration were calculated as described [23]. Uptake of radiolabeled hexose into HEK293 cells was measured in glucose-free HBSS as described previously [24]. Briefly, cells were plated at 400,000 cells/well overnight at 37°C in 24-well plates pre-treated with PEI. After 30-min incubation at 37°C in glucose-free HBSS in the presence of vehicle or increasing concentrations of compound, 2-DG uptake was measured in glucose-free HBSS for 4 min at 37°C. Cultures were washed in ice-cold 1X PBS and lysed in 0.1% Triton X-100 in 1X PBS. Radiolabeled hexose uptake was determined by liquid scintillation counting (Ultima Gold, Thermo Fisher) and normalized to total protein per well. Uptake data are plotted as percent uptake relative to vehicle-treated cells. Kinetic analyses were performed using the indicated concentrations of substrate and WU-1, with quenching of uptake after 1 min incubation. […] Data were fit by least squares nonlinear regression analysis using GraphPad Prism 6.0 software.

In test [2] the target is T2, FTPfHT (Plasmodium falciparum, UniProt Q7KWJ5).
T2 sequence (Q7KWJ5 1-504): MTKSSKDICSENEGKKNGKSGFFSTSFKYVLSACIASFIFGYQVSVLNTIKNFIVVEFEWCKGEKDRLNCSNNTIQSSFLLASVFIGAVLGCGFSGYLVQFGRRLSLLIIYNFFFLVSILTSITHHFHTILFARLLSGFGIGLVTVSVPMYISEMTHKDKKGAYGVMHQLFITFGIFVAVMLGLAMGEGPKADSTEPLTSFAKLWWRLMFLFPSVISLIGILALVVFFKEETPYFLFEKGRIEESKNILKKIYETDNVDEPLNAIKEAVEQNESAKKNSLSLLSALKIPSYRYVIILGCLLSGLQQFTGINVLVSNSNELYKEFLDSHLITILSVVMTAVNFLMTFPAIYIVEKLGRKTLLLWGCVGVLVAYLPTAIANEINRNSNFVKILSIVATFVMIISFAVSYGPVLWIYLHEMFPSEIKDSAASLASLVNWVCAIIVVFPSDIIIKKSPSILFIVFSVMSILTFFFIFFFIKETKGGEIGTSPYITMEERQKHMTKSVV
Description: Kinetic analysis of 2-DG uptake (Km) in HEK293 cells overexpressing FTPfHT. The following applies: average of Expt 1-3. More on the design: the 38–40 kDa band represents full length PfHT; expressed in transfected cells; host or cells: HEK293-FLIP (HEK293). The format is cell-based.
Description: Glucose uptake by P. falciparum was performed essentially as described [23]. P. falciparum strain 3D7 was cultured in 100 mm tissue culture dishes (Techno Plastic Products) in a 2% suspension of human erythrocytes and RPMI 1640 medium until reaching > 7.5% parasitemia. Cells were pelleted via centrifugation and resuspended in RPMI 1640 medium. To determine the uptake of radiolabeled glucose into the parasite, parasites were isolated from infected erythrocytes by permeablization with saponin (0.05 w/v), followed by centrifugation, aspiration of supernatant and washing of the pellet 3X with saline solution (135 mM NaCl, 2 mM KCl, 25 mM HEPES, 0.2 mM glucose and 1 mM MgCl2; pH 7.1) to remove cellular debris. […] The ratio of the estimated intracellular concentration of radiolabel relative to the extracellular concentration were calculated as described [23]. Uptake of radiolabeled hexose into HEK293 cells was measured in glucose-free HBSS as described previously [24]. […] After 30-min incubation at 37°C in glucose-free HBSS in the presence of vehicle or increasing concentrations of compound, 2-DG uptake was measured in glucose-free HBSS for 4 min at 37°C. […] Radiolabeled hexose uptake was determined by liquid scintillation counting (Ultima Gold, Thermo Fisher) and normalized to total protein per well. […]

Another test relates to GLUT1 Y293I. More on the design: method as in PMID 8157690. Conditions: GLUT1 Y293I vs wild type; cited from earlier work.
Test [3] has as its target T1, PfHT. Description: 2-DG uptake by HEK293 cells overexpressing PfHT. The format is cell-based. More on the design: expressed in transfected cells; host or cells: HEK293 (HEK293-FLIP, native hGLUT1 knocked down by shRNA). The source says: (§1) Generation of HEK293 cells overexpressing PfHT and human GLUTs 1–4 were described elsewhere. Briefly, HEK293 cells were transfected with pcDNA3.1 FLII12Pglu-7006 (Addgene), containing the fluorescence resonance energy transfer (FRET) glucose sensor (HEK293-FLIP) and PfHT, human GLUT1 (hGLUT1), hGLUT2, hGLUT3, hGLUT4, hGLUT5 or hGLUT8 using Optifect (Life Technologies) according to manufacturer’s specifications. To increase retention of GLUT8 at the plasma membrane, the dileucine sorting signal E^7E^8XXXLL was modified to R^7R^8XXXLL as described in [17]. Stable transfectants were selected for G418 and hygromycin resistance to select for FRET sensor and hexose transporter, respectively. HEK293-FLIP cells were also used to generate cells stably transfected with FLAG-tagged PfHT (FTPfHT). FLAG tag ([…]) followed by a triple glycine linker and a tobacco etch virus (TEV) protease site (ENLYFQS) followed by a triple glycine linker was added to the N-terminus of PfHT via PCR [18] using Phusion Hot Start II High-Fidelity DNA Polymerase (Fisher Scientific). Single clones were selected by comparing their abilities to transport glucose as assayed via FRET and radiolabeled hexose uptake. In all cell lines, except for HEK293 cells overexpressing hGLUT1 and hGLUT5, native hGLUT1 was knocked down using shRNA as described elsewhere. Transcript levels of the individual GLUTs expressed in each cell line are as described in [13, 15] and in S1 Fig.
(§2) Glucose uptake by P. falciparum was performed essentially as described. P. falciparum strain 3D7 was cultured in 100 mm tissue culture dishes (Techno Plastic Products) in a 2% suspension of human erythrocytes and RPMI 1640 medium until reaching > 7.5% parasitemia. Cells were pelleted via centrifugation and resuspended in RPMI 1640 medium. To determine the uptake of radiolabeled glucose into the parasite, parasites were isolated from infected erythrocytes by permeablization with saponin (0.05 w/v), followed by centrifugation, aspiration of supernatant and washing of the pellet 3X with saline solution (135 mM NaCl, 2 mM KCl, 25 mM HEPES, 0.2 mM glucose and 1 mM MgCl2; pH 7.1) to remove cellular debris. WU-1 or DMSO vehicle were added to 100 μl parasites (resuspended in saline) 5 min prior to the addition of 100 μl [^14C]2-DOG (0.2- μCi/ml final concentration). 2-DG uptake was stopped after 2 min by layering the entire reaction over 300 μl of an oil mixture (5:4 mix of dibutyl phthalate / dinonyl phthalate) in Eppendorf tubes and centrifuged at 15,850 × g for 2 mins. The ratio of the estimated intracellular concentration of radiolabel relative to the extracellular concentration were calculated as described. Uptake of radiolabeled hexose into HEK293 cells was measured in glucose-free HBSS as described previously. Briefly, cells were plated at 400,000 cells/well overnight at 37°C in 24-well plates pre-treated with PEI. After 30-min incubation at 37°C in glucose-free HBSS in the presence of vehicle or increasing concentrations of compound, 2-DG uptake was measured in glucose-free HBSS for 4 min at 37°C. Cultures were washed in ice-cold 1X PBS and lysed in 0.1% Triton X-100 in 1X PBS. Radiolabeled hexose uptake was determined by liquid scintillation counting (Ultima Gold, Thermo Fisher) and normalized to total protein per well. Uptake data are plotted as percent uptake relative to vehicle-treated cells. Kinetic analyses were performed using the indicated concentrations of substrate and WU-1, with quenching of uptake after 1 min incubation. Incubation times had been previously determined as being in the linear range of time-dependent radiolabeled hexose uptake (2 min for 2-DG uptake into freed parasites; 2 and 4 min for D-Frc and 2-DG uptake HEK cell lines, respectively). Data were fit by least squares nonlinear regression analysis using GraphPad Prism 6.0 software.

For test [4], the target named is T2, FTPfHT. Description: 2-DG uptake by HEK293 cells overexpressing FLAG-tagged PfHT (FTPfHT). Type of test: cell-based. More on the design: the 38–40 kDa band represents full length PfHT; expressed in transfected cells; host or cells: HEK293-FLIP (HEK293); key to 2-DG Uptake AVE: % uptake relative to vehicle-treated cells.
Excerpt: as §1, §2

Take `O=C(CO)[C@@H](O)[C@H](O)[C@H](O)CO` [D-frc]: the results for the “Km (1/v) D-frc uptake: AVE IC50” value on PfHT [1] (average of Expt 1-3) and at FTPfHT [2] were 1.83 mM and 2.07 mM, respectively. For the same molecule, on PfHT [1] (single experiments Expt 1-3), the “Km (1/v) D-frc uptake: IC50” value is 2.5 mM and 1.6 mM and 1.38 mM.

As usually defined, the IC50 is the concentration that inhibits the measured activity by half. On to `CC1OC[C@H]2O[C@H](O)[C@H](O)[C@@H](O)[C@@H]2O1` (stereo partly drawn) [Ethylideneglucose, 4,6-O-ethylidene-α-D-glucose, reference compound], for which, in the test with GLUT1 Y293I, the “decrease of Ki by Y293I mutation” value is > 2 fold. The 50% inhibitory concentration (IC50) at PfHT [3] (PfHT, 2-DG Uptake, average of Expt 1-3, read-out: AVE IC50) is 5.79 mM; on PfHT [3] (PfHT, 2-DG Uptake, single experiments Expt 1-3, read-out: IC50), 5.99 mM; on PfHT [3] (read-out: IC50 for inhibition of 2-DG uptake, HEK293 cells overexpressing PfHT), 5.9 ± 0.15 mM; on FTPfHT [4] (FTPfHT, 2-DG Uptake, single experiments Expt 1-3, read-out: IC50), 1.49 mM and 1.83 mM and 1.17 mM; at FTPfHT [4] (read-out: IC50 for inhibition of 2-DG uptake, HEK293 cells overexpressing FTPfHT), 1.5 ± 0.2 mM. In addition, the “2-DG Uptake AVE” value is 100.00 at PfHT [3] (PfHT, concentration 0.001 mM, Expt 1-3); 94.37 and 96.75 and 86.10 on PfHT [3] (PfHT, concentration 0.3125 mM); 89.78 and 84.91 and 77.97 on PfHT [3] (PfHT, concentration 0.625 mM); 82.38 and 77.88 and 79.22 at PfHT [3] (PfHT, concentration 1.25 mM); 70.45 and 76.21 and 65.14 on PfHT [3] (PfHT, concentration 2.5 mM); 56.80 and 57.04 and 54.41 on PfHT [3] (PfHT, concentration 5 mM). The “2-DG Uptake AVE” value is 38.62 and 35.32 and 38.49 at PfHT [3] (PfHT, concentration 10 mM); 25.77 and 23.49 and 21.21 at PfHT [3] (PfHT, concentration 20 mM); 17.24 and 14.68 and 18.76 on PfHT [3] (PfHT, concentration 40 mM); 11.01 and 10.15 and 11.14 on PfHT [3] (PfHT, concentration 80 mM); 6.85 and 7.66 and 8.85 on PfHT [3] (PfHT, concentration 160 mM); 4.36 and 4.29 and 5.25 on PfHT [3] (PfHT, concentration 320 mM). Besides, the “2-DG Uptake AVE” value on FTPfHT [4] (FTPfHT, concentration 0.001 mM, Expt 1-3) was 100.00; at FTPfHT [4] (FTPfHT, concentration 0.0390625 mM) it was 96.35; on FTPfHT [4] (FTPfHT, concentration 0.078125 mM) it was 89.02 and 99.10 and 95.29; on FTPfHT [4] (FTPfHT, concentration 0.15625 mM), 83.11 and 96.24 and 85.58; on FTPfHT [4] (FTPfHT, concentration 0.3125 mM), 83.21 and 82.95 and 84.08; at FTPfHT [4] (FTPfHT, concentration 0.63 mM), 73.60 and 68.20 and 76.54. The “2-DG Uptake AVE” value on FTPfHT [4] (FTPfHT, concentration 1.25 mM) is 62.34 and 52.24 and 56.96; at FTPfHT [4] (FTPfHT, concentration 2.5 mM), 40.70 and 31.77 and 32.91; at FTPfHT [4] (FTPfHT, concentration 5 mM) it was 18.95 and 15.78 and 18.06; at FTPfHT [4] (FTPfHT, concentration 10 mM), 13.87 and 9.18 and 10.65; at FTPfHT [4] (FTPfHT, concentration 20 mM), 7.63 and 6.14 and 7.00; on FTPfHT [4] (FTPfHT, concentration 40 mM), 5.44 and 4.46 and 5.15. Besides, on FTPfHT [4] (FTPfHT, concentration 80 mM), the “2-DG Uptake AVE” value was 5.14 and 3.60.
